“Also recorded” adds a separate entry of the source.
Key:
[1] = Plasma urea concentration after test drinks; assay type: in vivo, human; conditions: for plasma urea compared to baseline values: healthy control and COPD group, 30.0 mg GLU/kg or 29.8 mg glutamine/kg every 20 min for 4 hours
Description: The 3 test drinks were studied on different days and in a randomized order using a similar study protocol.

[2] = Plasma lactate response to exercise; assay type: in vivo, human
Procedure: (§1) The subjects were measured before and during a submaximal constant work rate cycle test of 20 minutes (at 50% of their maximal workload previously achieved during an incremental exercise test).

[3] = tested on: whole body protein breakdown; assay: Whole body protein breakdown (phenylalanine turnover, stable isotope methodology); assay type: in vivo, human; conditions: young healthy volunteers, during GLU supplementation
Procedure: In the young healthy volunteers, whole body protein and 3-methylhistidine turnover were measured during glutamate supplementation using stable isotope methodology. […] In order to elucidate the contribution of muscle to whole body protein metabolism, the rate of myofibrillar protein breakdown (3-methylhistidine turnover) was simultaneously measured.

[4] = GLU appearance in plasma and splanchnic GLU extraction (stable isotope methodology); assay type: in vivo, human; conditions: young subjects, after start of GLU ingestion
[5] = tested on: myofibrillar (muscle) protein breakdown; assay: Myofibrillar protein breakdown (3-methylhistidine turnover / rate of appearance); assay type: in vivo, human; conditions: for 3-methylhistidine rate of appearance in plasma during exercise: submaximal cycle exercise 20 min at 50% maximal workload, GLU versus water
[6] = tested on: whole body leucine turnover; assay: Whole body leucine turnover (leucine tracer); assay type: in vivo, human
Procedure: FIG. 11: Whole body leucine rate of appearance gives a reflection of whole body leucine turnover and is the sum of leucine turnover coming from protein breakdown and from other (non-protein) sources.
as §1

[7] = Plasma GLU concentration after continuous ingestion of a glutamate enriched drink; assay type: in vivo, human
Description: When using a continuous infusion protocol of stable isotopes, plasma glutamate concentrations have to be in steady state condition before metabolic data can be obtained.
Subsequently, we performed several pilot studies (summary see FIG. 1) in order to obtain the optimal dose of glutamate. Pilot studies included continuous ingestion of a glutamate enriched drink and evaluation of the concentration of glutamate and related amino acids in plasma.
In the 2nd pilot study, we decided to use the pure form of glutamate to avoid the large sodium content. […] Blood samples were taken to evaluate plasma glutamate level.
This protocol was used in further studies.

[8] = Side effects / tolerance incl. Chinese restaurant syndrome (food tolerance questionnaire); assay type: in vivo, human; conditions: for side effects / adverse complaints (including Chinese Restaurant syndrome symptoms): COPD patients and healthy control subjects, 6-7 g/hour for 4-6 hours
Procedure: In all the pilot studies, the patients and the healthy control subjects in the age ranging from 20 to 80 years were run through a protocol to determine feasibility.
In the experiments the intake of glutamate is usually in the order of 6-7 g/hour for a period of 4-6 hours meaning a total intake of […].
Moreover, a placebo (glutamine) was used for comparison.

[9] = cited from earlier work

In the case of `NC(=O)CC[C@H](N)C(=O)O` [GLN, glutamine, reference compound], the “plasma urea compared to baseline values” [1] is reported as “increased”.
For `N[C@@H](CCC(=O)O)C(=O)O` [GLU, L-glutamic acid], the “increase in plasma lactate concentration during exercise versus water” value ([2]; COPD group (text to FIG. 13)) was “lower increase”, the “increase in plasma lactate concentration during exercise versus water” value ([2]; healthy control group (FIG. 13 legend)) was “lower increase” and the “whole body protein breakdown rate (phenylalanine turnover)” value [3] was “gradual decrease; also recorded: significantly decreased”. For the same molecule, the “time to steady state of whole body GLU plasma appearance” value [4] was ≤ 1.5 h, the “plasma urea compared to baseline values” [1] was “decreased” and the “plasma urea concentration after intake” value ([1]; healthy young volunteers, GLU with carbohydrate (maltodextrin) protein meal) was “decreased”. For the same molecule, the “myofibrillar protein breakdown during the first 10 minutes of exercise” value ([5]; COPD group, cycle exercise, ingesting glutamate) was “reduction”, the “3-methylhistidine rate of appearance in plasma during exercise” value ([5]; COPD group) was “abolished the increase” and the “3-methylhistidine rate of appearance in plasma during exercise” value ([5]; COPD group, listed as glutamate) was “diminished”. The “myofibrillar protein breakdown (3-methylhistidine turnover)” value ([5]; young healthy volunteers at rest, in less than one hour after GLU ingestion) was “reduction; also recorded: decreased”, the “whole body leucine turnover not related to protein turnover” value ([6]; at rest, COPD and control subjects) was “reduction” and the “increase in whole body leucine turnover during exercise” value ([6]; cycle exercise 20 min at 50% maximal workload, 30 mg GLU/kg every 20 min versus water, COPD (and control) group) was “diminished the increase”. For the same molecule, the “time to steady state in GLU concentration after start of ingestion” value ([7]; 4 subjects, 30 mg GLU/kg body weight every 20 min (FIG. 2)) was ≤ 2 h, the “rise in plasma GLU concentration, COPD group versus control group” value ([7]; 8 COPD patients vs 8 healthy controls, 30 mg GLU/kg every 20 min) was “significantly lower” and the “plasma GLU level compared to baseline” value ([7]; COPD patients and healthy age-matched control subjects (both groups), 30 mg GLU/kg every 20 min, 120 min after start) was “significantly increased; also recorded: significant increase”. For the same molecule, the “steady state in plasma glutamate level” value ([7]; healthy volunteers, 69.4 mg glutamate/kg body weight every 30 minutes (2.4% solution)) was 30 min intervals were too long to reach a steady state, the “time to steady state of plasma glutamate concentration” value ([7]; healthy young volunteers, 30 mg GLU/kg body weight every 20 min) was ≤ 120 min and the “increase in the plasma glutamate concentration” value ([7]; healthy young volunteers, 30 mg GLU/kg body weight every 20 min (2.4% solution), total 300 mg/kg) was “about 500%”. For the same molecule, the “plasma GLU concentration” value ([7]; healthy young volunteers, GLU added to carbohydrate (maltodextrin) whey protein meal (carbohydrate:protein:glutamate=5:2:5)) was “significantly increased to steady state values”, the “CRS effects versus placebo (glutamine)” value ([8]; 26 healthy volunteers, 30 mg GLU/kg every 20 min) was “No significant differences” and the “number and severity of complaints versus placebo (glutamine)” value ([8]; 26 healthy volunteers, 30 mg GLU/kg every 20 min, questionnaire until 2 hours after last ingestion) was “No differences”. For the same molecule, the “subjects having the symptoms known as Chinese restaurant syndrome” value ([8]; 26 healthy volunteers, 30 mg GLU/kg every 20 min, until 2 hours after ingestion) was “less than 5%”, the “side effects / adverse complaints (including Chinese Restaurant syndrome symptoms)” value [8] was “none” and the “side effects / adverse complaints (including Chinese Restaurant syndrome symptoms)” value ([8]; listed as glutamate) was “do not occur”.
For `N[C@@H](CCC(=O)O)C(=O)[O-].[Na+]` [MSG, monosodium glutamate], the “side effects after high (bolus) dose” value ([9]; Graham et al., healthy subjects, bolus MSG) is given as “transient headaches”, the “plasma GLU concentration versus dose” value ([9]; Stegink et al. and Ghezzi et al., healthy volunteers, various concentrations of MSG) is given as “increased proportionally to the given dose” and the “muscle GLU concentration” value ([9]; young healthy men, glutamate provided in excess as MSG) is given as “increase”. The “tolerance of the drink” value ([8]; healthy volunteers, 3.6% MSG solution, 80.3 mg MSG/kg body weight every 30 minutes) was “well”.
